Test results as given in patent US20140303123A1, “SYNTHESIZING FUNCTIONALIZED DENDRIMERS WITHIN BIOLOGICAL SETTINGS” (priority 2011, published 2014).

Columns and labels:
[1] = system: folate receptor; settings: relative to folic acid; cited from earlier work
[2] = system: FRα over-expressing KB cells; assay: Uptake of dendrimer conjugates in KB cells, in situ CuAAC detection with fluorescent azide, flow cytometry; type: cell-based; settings: increasing concentrations, 1 hour at 37° C., Alexa647-azide detection (FIG. 2A)
Procedure: KB cells were cultured in RPMI 1640 medium without folic acid for at least 4 days before experiments, resulting in the folic acid receptor overexpressing KB (FAR-KB) cell line. […] For the flow cytometry measurements, cells were seeded on a 12-well plate for tissue culture at a concentration of 23105 cells/well and grown in folic acid deficient RPMI 1640 media (Mediatech, Herndon, Va.) at 37° C., 5% CO2 for 24 hr. The cells were then incubated with the series of the prepared nanodevices at either 37° C. for 1 hr. After removal of supernatants, cells were trypsinized and collected into FACS tubes, followed by centrifugation at 1500 rpm for 5 min to obtain cell pellets. […] Fluorescence signal intensities from the samples were measured using a Coulter EPICS/XL MCL Beckman-Coulter flow cytometer, and data were analyzed using FloJo 8.2 software (TreeStar).
After 4% paraformaldehyde fixation and permeabilization with 10% saponin in PBS and BSA, cells were rinsed and then stained by incubating cells for 30 min with 100 mM Tris (pH 8.5), 1 mM CuSO4, 1-100 μM fluorescent azide (in DMSO), and 100 mM ascorbic acid (added last to the mix in 0.5 M stock in water). […] After staining, cells were washed with 10% saponin solution and assessed by flow cytometry.

[3] = system: CD11b+ macrophages (peritoneal macrophages, lymph nodes); assay: In vivo trafficking of FA-targeted dendrimer nanoparticles in a murine model of inflammation (thioglycollate IP); settings: thioglycollate-stimulated mice, 35 mg/kg IP on day 3, cells isolated day 4 (FIG. 6); for uptake in peritoneal macrophages (PEM): 35 mg/kg
Procedure: Mice (n=2) were stimulated with thioglycollate IP. 3 days following thioglycollate, mice were administered 200 μl (35 mg/kg) folate functionalized dendrimer alkyne scaffolds. One day later (day 4), peritoneal macrophages (PEM), spleen, cervical lymph nodes, and mesenteric lymph nodes were isolated and processed into single-cell suspensions. Suspensions were stained with a CD11b monoclonal PE antibody and then fixed and permeabilized. Cell suspensions were then reacted with AlexaFluor 647-azide to detect dendrimer conjugates and analyzed by flow cytometry.
On day 1, mice (n=2) were treated IP with thioglycollate to stimulate folate receptor positive macrophage infiltration into the peritoneal cavity (see, e.g., Xia, W. et al. Blood 113, 438-446 (2005); herein incorporated by reference in its entirety). On day 3, mice were administered folate targeted dendrimers IP (35 mg/kg). On day 4, peritoneal macrophages (PEM) as well as the spleen, submandibular lymph nodes, and mesenteric lymph nodes were isolated and processed as using standard techniques. Single cell suspensions were made and analyzed by flow cytometry for co-expression of the macrophage marker CD11b and the FA-dendrimer scaffolds. […] Compared to the cervical lymph nodes (secondary lymph organs not draining the peritoneal cavity), there was a greater proportion of double-positive CD11b and FR cells in the mesenteric lymph nodes consistent with the trafficking of these activated macrophages.

[4] = system: bone marrow derived macrophages (BMDM); settings: BMDMs differentiated with IL-4 and IL-10, 30 nM, 6 hours at 37° C. (FIG. 4)
Procedure: Bone marrow derived macrophages (BMDM) were obtained as previously described. Briefly, bone marrow precursors from female C57BL/6 mice were isolated and propagated for 7 days in RPMI 1640 supplemented with penicillin (100 units/ml), streptomycin (100 mg/ml), and 10% heat inactivated low endotoxin fetal bovine serum with L-conditioned media. Following propagation, BMDMs were polarized with murine recombinant proteins M-CSF (10 ng/ml), IL4 (50 ng/ml), IL10 (10 ng/ml), or GM-CSF (10 ng/ml) for 72 hours (Peprotech). For the flow cytometry measurements, cells were seeded on a 12-well plate for tissue culture at a concentration of 23105 cells/well and grown in folic acid deficient RPMI 1640 media (Mediatech, Herndon, Va.) at 37° C., 5% CO2 for 24 hr. […] Fluorescence signal intensities from the samples were measured using a Coulter EPICS/XL MCL Beckman-Coulter flow cytometer, and data were analyzed using FloJo 8.2 software (TreeStar).
After 4% paraformaldehyde fixation and permeabilization with 10% saponin in PBS and BSA, cells were rinsed and then stained by incubating cells for 30 min with 100 mM Tris (pH 8.5), 1 mM CuSO4, 1-100 μM fluorescent azide (in DMSO), and 100 mM ascorbic acid (added last to the mix in 0.5 M stock in water). […] After staining, cells were washed with 10% saponin solution and assessed by flow cytometry. […]

In the case of CN(Cc1cnc2nc(N)nc(N)c2n1)c1ccc(C(=O)N[C@@H](CCC(=O)O)C(=O)O)cc1 [methotrexate], the “affinity for the folate receptor in comparison to folic acid (lower)” value [1] is listed as 100 fold.
With “G5-NHAc80-Alkyne8-FA4-Gly [FA-dendrimer alkyne conjugates]” the cellular uptake [2] was “dose-dependent cellular uptake”, the “uptake in CD11b+ cells in the mesenteric lymph nodes” value [3] was “significant uptake” and the “uptake in peritoneal macrophages (PEM)” value ([3]; listed as FA-dendrimer nanoparticles) was “much higher uptake”. For the same molecule, the “uptake in peritoneal macrophages (PEM)” value ([3]; listed as folate nanodevices) was “significant uptake”.
In the case of “G5-NHAc80-Alkyne12-Gly [non-targeted dendrimer conjugates]”, the cellular uptake [2] is reported as “did not demonstrate any significant uptake”.
For “G5-NHAc80-Alkyne12-Mannose15-Gly [mannose-targeted dendrimers]”, the “binding and uptake compared to non-targeted controls” value [4] was “increased binding and uptake”.
